From patent US11174216B2, “Lipids that increase insulin sensitivity and methods of using the same” (Beth Israel Deaconess Medical Center, Inc., priority 2012, dated 2021) come the findings set out here.

Data set [1] concerns STC-1 cells. In words: ERK phosphorylation in STC-1 cells (immunoblot). In kind it is cell-based. The note with it: 15 minutes. The protocol: For the experiments summarized in FIG. 50, STC-1 cells were incubated with 9-PAHSA, 5-PAHSA or 9-OAHSA at the indicated concentrations. Cells were harvested and lysed and proteins were separated by SDS PAGE and transferred onto nitrocellulose filters. The phosphorylation of ERK and the amount of total ERK was determined by immunoblotting with antibodies specific for total or phosphor-ERK. DMSO was the control. For ERK phosphorylation, cells were serum deprived overnight and stimulated with FAHFAs or vehicle as indicated for 15 minutes followed by lysis in RIPA buffer and analysis by SDS-PAGE
In general terms: Immunoblotting shows a protein as a band on a membrane.

Data set [2] relates to STC-1 cells. In words: Calcium flux (FURA2) in STC-1 cells. The note with it: 100 uM, no extracellular Ca2+. In kind it is cell-based. The protocol:
For the experiments summarized in FIG. 49 the method is: Cells grown on collagen coated glass slides were preloaded with the calcium indicator, FURA2, for 60 minutes. Buffer containing either FAHFAs or vehicle was incubated with cells for a period of 3 minutes followed by washout with buffer alone. FURA2 fluorescence, an indicator of Calcium mobilization, was monitored continuously before and during the addition of compounds and throughout the washout period. Results were analyzed with metamorph software. Calcium Flux in STC-1 (intestinal enteroendocrine) cells in the absence of extracellular calcium (calcium free buffer). Ligands were injected after 3 minutes and washed out after an additional 3 minutes. The data presented is the average fold change in Fura2 fluorescence for 10 individual STC-1 cells in the same field.
DMSO control had no effect. Top panel is linoleic acid, a positive control. Middle panel 9-PAHSA (100 uM). Bottom panel 5-PAHSA (100 μM). These experiments were done in the absence of extracellular calcium.
Background: Calcium flux is commonly read through the fluorescence of an indicator in the cells.

Data set [3] has as its target T1, GPR120 (Homo sapiens, UniProt Q5NUL3).
T1 sequence (Q5NUL3 1-361): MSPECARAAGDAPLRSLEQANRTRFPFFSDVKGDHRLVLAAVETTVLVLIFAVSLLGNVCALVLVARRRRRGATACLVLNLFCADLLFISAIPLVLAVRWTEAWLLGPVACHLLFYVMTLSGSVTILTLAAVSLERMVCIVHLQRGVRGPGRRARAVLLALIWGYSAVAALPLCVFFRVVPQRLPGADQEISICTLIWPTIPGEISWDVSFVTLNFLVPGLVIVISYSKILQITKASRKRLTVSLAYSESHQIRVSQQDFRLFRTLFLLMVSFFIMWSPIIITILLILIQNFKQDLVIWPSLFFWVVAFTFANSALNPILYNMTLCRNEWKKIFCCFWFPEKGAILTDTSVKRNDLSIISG
In words: PATHHUNTER beta-Arrestin GPCR assay. Type of data set: cell-based. From the text:
For the experiments summarized in FIGS. 53-55, the fragment based GPCR assay from DiscoveRx (PATHHUNTER® β-Arrestin assay) was used to as per manufacturer's instructions to determine activation of specific GPCRs as indicated in FIGS. 53-55.

Data set [4] relates to STC-1 cells. In words: GLP-1 secretion in STC-1 enteroendocrine cells (ELISA). In kind it is cell-based. On the procedure: For the experiments summarized in FIG. 51 STC-1 cells were incubated with vehicle (DMSO), 9-PAHSA, 5-PAHSA or 9-OAHSA at the indicated concentrations or lineolic acid (100 uM) as a positive control. Media was harvested and GLP-1 was measured by ELISA.
For the experiments summarized in FIG. 52, the same protocol as described for FIG. 51 was used, except in this experiment a time course was performed. For both FIG. 51 and FIG. 52, for GLP-1 secretion STC1 cells were washed 3× with serum free culture media followed by stimulation with FAHFAs or vehicle at the indicated concentrations and timepoints. Levels of active GLP-1 were measured by ELISA.

The subject of data set [5] is Ins1 cells. As to the kind of experiment: Insulin release studies in Ins1 cells. In kind it is cell-based. The note with it: 25 mM glucose in the media. The protocol: Ins1 cells (FIGS. 31A and 31B) or primary rat islet cells (FIG. 32A and FIG. 32B) were seeded in 24 well-plates [˜10^6 cells/well]. At confluence, cells were incubated with Low Serum [2.5%] and Low Glucose [2.5 mM] media for 12 hours. Next, cells were incubated with KRB buffer for 1 h and stimulated with glucose in the presence of 5-PAHSA (FIGS. 31a and 31B) or 9-PAHSA (FIG. 31B) for 45 min in KRB. At the end of the stimulation, 100 μL of media was collected and 10 μL was used to quantitate the amount of insulin released by ELISA. Treatment Conditions for FIGS. 31A, 31B and 32B were: • 5-PAHSA or 9-PAHSA [Stock]=20.0 mM [10.76 mg/mL Methanol] • A] 1 uM=0.3 uL/6 mL [Amount of methanol/mL=0.05 uL] • B] 5 uM=1.5 uL/6 mL [Amount of methanol/mL=0.25 uL] • C] 10 uM=3.0 uL/6 mL [Amount of methanol/mL=0.50 uL] • D] 20 uM=6.0 uL/6 mL [Amount of methanol/mL=1.00 uL]
Ins1 cells were seeded in 24 well-plates [˜10^6 cells/well] and at 80% confluence, were cultured overnight in RPMI 1640 medium containing 2.5 mM glucose and 2.5% fetal bovine serum supplemented with 100 IU/ml penicillin and […], 1 mM sodium pyruvate, 2-mercaptoethanol (50 μM) and 10 mM HEPES (pH 7.4). […] At the end of the stimulation supernatant was collected and insulin released into the medium was quantified by ELISA as per manufacturer's protocol. […]

The test system of data set [6] is FAHFA hydrolysis activity in liver lysate.

`CCCCCCCCCCCCCCCC(=O)OC(CCCCCCCCCCCCC)CCCC(=O)O` (stereo not shown) [5-PAHSA]: the ERK phosphorylation entry in data set [1] was “induce ERK phosphorylation”. Also, the “Ca2+ flux from intracellular stores” value in data set [2] is on record as “induce Ca^2+ flux from intracellular stores”. The “activation of GPR120” value in data set [3] was “activate GPR120”. Besides, the GLP-1 secretion result in data set [4] is “induce GLP-1 secretion”. Moreover, the insulin secretion result in data set [5] is on record as “potentiate insulin secretion”.

For `CCCCCCCCCCCCCCCC(=O)OC(CCCCCCCCC)CCCCCCCC(=O)O` (stereo not shown) [9-PAHSA, palmitoyl-9-hydroxystearic acid], the ERK phosphorylation result in data set [1] was “induce ERK phosphorylation”. The “Ca2+ flux from intracellular stores” value in data set [2] is “induce Ca^2+ flux from intracellular stores”. The “activation of GPR120” value in data set [3] is listed as “activate GPR120”. The “ligand for GPR120” value in data set [3] (bar graph and titration curve) was “is a ligand for the GPCR, GPR120”. In data set [6], the “hydrolysis of 9-PAHSA to 9-HSA” value is listed as “Substantial 9-HSA production”. Further, in data set [4], the GLP-1 secretion result is reported as “induce GLP-1 secretion”; the “time course for GLP-1 secretion” value was “very rapid and sustained”. In data set [5], the insulin secretion entry is “potentiate insulin secretion”.
